This is an account of results in patent US12459951B2, “Compounds that interact with RAS superfamily proteins for treatment of cancers, inflammatory diseases, rasopathies, and fibrotic disease” (SHY Therapeutics, LLC, priority 2022, dated 2025).

Bounds are passed on as bounds.

One assay relates to IL6. As to the kind of experiment: IL-6 Quantification Assay (ELISA), LPS-stimulated RAW 264.7. The format is cell-based. Also noted: inhibition: dose or concentration left out as unconfirmed. The following applies: Mus musculus, RAW264.7; read-out: IL-6: % inh.
For another assay, the system named is TNF-alpha. As to the kind of experiment: TNF-alpha Quantification Assay (ELISA), LPS-stimulated RAW 264.7. The assay is classed as cell-based. The following applies: Mus musculus, RAW264.7; at 10 μM; read-out: TNFα: % inh.
In assay [1] the test system is MiaPaca-2 (expressing KRAS G12C mutant). As to the kind of experiment: Proliferation Assay (Cell Viability Assay). The format is cell-based. As to conditions: Homo sapiens, MIA PaCa-2; read-out: Proliferation in MiaPaca-2: IC50. The method, boiled down: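 After 2–4 days' exposure at 37 °C, 5% CO2 to a single 10 μM final concentration or a dilution series (IC50), percent proliferation inhibition was derived from CellTiter 96 Aqueous One viability readings. The medium contained 0.3% DMSO and 10% FBS. KRAS G12C MiaPaca-2 cells were plated at 2000–5000/well the day before.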

In the next assay the test system is Akt phosphorylation. The assay can be described thus: Akt Phosphorylation Assay (western blot), Panc-1. The assay is classed as cell-based, human. The following applies: at 10 μM, * = activation. Summed up:
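Phospho-Akt (Ser473) was measured by western blot in lysates of KRas G12D Panc-1 cells exposed to test compound for 6 h at 37 °C, either at 10 μM final with 0.3% DMSO or as serial dilutions for IC50. One format used overnight 0.5% FBS starvation followed by a 15 min pulse of 1.5 ng/ml EGF. The other used cells in 10% FBS with no stimulation.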

As for `COc1cc(-c2cn3nc(-c4nccn4C)nc(N[C@H]4C[C@H](OC)C4)c3c2C)ccn1` [Compound 160, N-((1r,3r)-3-Methoxycyclobutyl)-6-(2-methoxypyridin-4-yl)-5-methyl-2-(1-methyl-1H-imidazol-2-yl)pyrrolo[2,1-f][1,2,4]triazin-4-amine], the inhibition with IL6 lay within 75 to 100%. The inhibition at 10 µM in the assay with TNF-alpha fell in the range of 25 to 49%. Besides, in assay [1], the IC50 is greater than 1000 nM. Moreover, the “% inh of Akt phosphorylation in Panc-1” value in the assay with Akt phosphorylation was “B* (26-49% activation)”.

Turning to `Cc1c(-c2ccn(C)n2)cn2nc(-c3nccn3C)nc(Nc3nccc(OCCN(C)C)n3)c12` [Compound 105, N-(4-(2-(Dimethylamino)ethoxy)pyrimidin-2-yl)-5-methyl-2-(1-methyl-1H-imidazol-2-yl)-6-(1-methyl-1H-pyrazol-3-yl)pyrrolo[2,1-f][1,2,4]triazin-4-amine], in the assay on IL6, the inhibition was in the range of 75 to 100%. Also, the inhibition at 10 µM in the assay with TNF-alpha was 0%. Also, the IC50 in assay [1] was 510 to 1000 nM. For the same compound, the “% inh of Akt phosphorylation in Panc-1” value with Akt phosphorylation is “C* (46-84% activation)”.

As to `Cc1c(-c2ccn(C3CC3)n2)cn2nc(-c3nccn3C)nc(Nc3cc(N(C)C)ccn3)c12` [Compound 145, N^2-(6-(1-Cyclopropyl-1H-pyrazol-3-yl)-5-methyl-2-(1-methyl-1H-imidazol-2-yl)pyrrolo[2,1-f][1,2,4]triazin-4-yl)-N^4,N^4-dimethylpyridine-2,4-diamine], the inhibition in the assay with IL6 was 50 to 74%. Further, the inhibition at 10 µM with TNF-alpha lay in the range of 1 to 24%. In assay [1], the IC50 is less than 150 nM. Besides, in the assay on Akt phosphorylation, the “% inh of Akt phosphorylation in Panc-1” value is given as “D* (85-100% activation)”.

Take `COc1ccnc(Nc2nc(-c3nccn3C)nn3cc(-c4ccn(C(F)F)n4)c(C)c23)n1` [Compound 95, 6-(1-(Difluoromethyl)-1H-pyrazol-3-yl)-N-(4-methoxypyrimidin-2-yl)-5-methyl-2-(1-methyl-1H-imidazol-2-yl)pyrrolo[2,1-f][1,2,4]triazin-4-amine]: the inhibition in the assay on IL6 lay within 1 to 24%. Moreover, the inhibition at 10 µM with TNF-alpha lay in the range of 1 to 24%. For the same compound, the IC50 in assay [1] is less than 150 nM. In addition, the “% inh of Akt phosphorylation in Panc-1” value in the assay on Akt phosphorylation is “D* (85-100% activation)”.

Take `CO[C@@H]1CC[C@@H](Nc2nc(-c3nccn3C)nn3cc(-c4cccnc4)c(C)c23)C1` (racemic) [Compound 154, rac N-((1R,3R)-3-methoxy-cyclopentyl)-5-methyl-2-(1-methyl-1H-imidazol-2-yl)-6-(pyridin-3-yl)pyrrolo[2,1-f][1,2,4]triazin-4-amine]: in the assay with IL6, the inhibition lay within 25 to 49%. Also, the inhibition at 10 µM with TNF-alpha came to 0%. Further, the IC50 in assay [1] is greater than 1000 nM. The “% inh of Akt phosphorylation in Panc-1” value in the assay on Akt phosphorylation is “B* (26-49% activation)”.

`Cc1c(-c2cccnc2)cn2nc(-c3nccn3C)nc(Nc3ccncn3)c12` [Compound 156, 5-Methyl-2-(1-methyl-1H-imidazol-2-yl)-6-(pyridin-3-yl)-N-(pyrimidin-4-yl)pyrrolo[2,1-f][1,2,4]triazin-4-amine]: in the assay with IL6, the inhibition was in the range of 1 to 24%. In the assay with TNF-alpha, the inhibition at 10 µM came out at 0%. Also, the IC50 in assay [1] is less than 150 nM. In addition, in the assay with Akt phosphorylation, the “% inh of Akt phosphorylation in Panc-1” value is reported as “D* (85-100% activation)”.

On to `COc1ccnc(Nc2nc(-c3nccn3C)nn3cc(-c4cccnc4)c(-c4ccccn4)c23)c1` [Compound 166, N-(4-Methoxypyridin-2-yl)-2-(1-methyl-1H-imidazol-2-yl)-5-(pyridin-2-yl)-6-(pyridin-3-yl)pyrrolo[2,1-f][1,2,4]triazin-4-amine], for which the inhibition with IL6 is 75 to 100%. Besides, the inhibition at 10 µM in the assay with TNF-alpha fell in the range of 75 to 100%. The IC50 in assay [1] is greater than 1000 nM. In addition, in the assay with Akt phosphorylation, the “% inh of Akt phosphorylation in Panc-1” value is given as “D* (85-100% activation)”.

As for `Cc1c(-c2ccn(C3CC3)n2)cn2nc(-c3nccn3C)nc(Nc3cc(OCCN(C)C)ccn3)c12` [Compound 147, 6-(1-Cyclopropyl-1H-pyrazol-3-yl)-N-(4-(2-(dimethylamino)ethoxy)pyridin-2-yl)-5-methyl-2-(1-methyl-1H-imidazol-2-yl)pyrrolo[2,1-f][1,2,4]triazin-4-amine], the inhibition with IL6 is 0%. Further, in the assay with TNF-alpha, the inhibition at 10 µM lay in the range of 1 to 24%. Besides, in assay [1], the IC50 was greater than 1000 nM. The “% inh of Akt phosphorylation in Panc-1” value in the assay on Akt phosphorylation is given as “A* (1-25% activation)”.

On to `Cc1c(-c2ccn(C)n2)cn2nc(-c3nccn3C)nc(Nc3nccn3C)c12` [Compound 106, 5-Methyl-N,2-bis(1-methyl-1H-imidazol-2-yl)-6-(1-methyl-1H-pyrazol-3-yl)pyrrolo[2,1-f][1,2,4]triazin-4-amine], for which the inhibition in the assay on IL6 was 50 to 74%. In the assay with TNF-alpha, the inhibition at 10 µM amounted to 0%. The IC50 in assay [1] was less than 150 nM. For the same compound, in the assay with Akt phosphorylation, the “% inh of Akt phosphorylation in Panc-1” value is reported as “D* (85-100% activation)”.

Turning to `Cc1c(-c2ccn(C3CC3)n2)cn2nc(-c3nccn3C)nc(Nc3cc(OCCO)ccn3)c12` [Compound 146, 2-((2-((6-(1-Cyclopropyl-1H-pyrazol-3-yl)-5-methyl-2-(1-methyl-1H-imidazol-2-yl)pyrrolo[2,1-f][1,2,4]triazin-4-yl)amino)pyridin-4-yl)oxy)ethan-1-ol], the inhibition in the assay on IL6 stood at 0%. Besides, the inhibition at 10 µM with TNF-alpha lay in the range of 1 to 24%. In addition, in assay [1], the IC50 lay in the range of 150 to 500 nM. Besides, the “% inh of Akt phosphorylation in Panc-1” value with Akt phosphorylation is “D* (85-100% activation)”.

On to `Cc1c(-c2ccn(C3CC3)n2)cn2nc(-c3nccn3C)nc(O)c12` [Compound 134, 6-(1-Cyclopropyl-1H-pyrazol-3-yl)-5-methyl-2-(1-methyl-1H-imidazol-2-yl)pyrrolo[2,1-f][1,2,4]triazin-4-ol], for which the inhibition with IL6 lay within 1 to 24%. The inhibition at 10 µM in the assay on TNF-alpha is 1 to 24%. The IC50 in assay [1] was greater than 1000 nM. Moreover, the “% inh of Akt phosphorylation in Panc-1” value in the assay on Akt phosphorylation is “A (1-25% inhibition)”.

Turning to `Cc1c(-c2ccn(C)n2)cn2nc(-c3nccn3C)nc(Nc3cnccn3)c12` [Compound 120, 5-Methyl-2-(1-methyl-1H-imidazol-2-yl)-6-(1-methyl-1H-pyrazol-3-yl)-N-(pyrazin-2-yl)pyrrolo[2,1-f][1,2,4]triazin-4-amine], in the assay with IL6, the inhibition lay in the range of 25 to 49%. Also, the inhibition at 10 µM in the assay with TNF-alpha lay within 1 to 24%. In assay [1], the IC50 is less than 150 nM. The “% inh of Akt phosphorylation in Panc-1” value in the assay with Akt phosphorylation is reported as “B* (26-49% activation)”.

Regarding `COc1cccnc1Nc1nc(-c2nccn2C)nn2cc(-c3ccn(C)n3)c(C)c12` [Compound 112, N-(3-Methoxypyridin-2-yl)-5-methyl-2-(1-methyl-1H-imidazol-2-yl)-6-(1-methyl-1H-pyrazol-3-yl)pyrrolo[2,1-f][1,2,4]triazin-4-amine], the inhibition in the assay on IL6 lay in the range of 25 to 49%. The inhibition at 10 µM in the assay with TNF-alpha is 0%. For the same compound, in assay [1], the IC50 is less than 150 nM. The “% inh of Akt phosphorylation in Panc-1” value in the assay with Akt phosphorylation is on record as “D* (85-100% activation)”.

`CO[C@H]1CC[C@@H](Nc2nc(-c3nccn3C)nn3cc(-c4ccn(C)n4)c(C)c23)C1` (racemic) [Compound 133, rac N-((1R,3S)-3-Methoxycyclopentyl)-5-methyl-2-(1-methyl-1H-imidazol-2-yl)-6-(1-methyl-1H-pyrazol-3-yl)pyrrolo[2,1-f][1,2,4]triazin-4-amine]: in the assay on IL6, the inhibition was found to be 0%. In the assay on TNF-alpha, the inhibition at 10 µM fell in the range of 1 to 24%. Also, in assay [1], the IC50 is greater than 1000 nM. In addition, in the assay with Akt phosphorylation, the “% inh of Akt phosphorylation in Panc-1” value is given as “B (26-49% inhibition)”.

As for `COc1cc(-c2cn3nc(-c4nccn4C)nc(N[C@H]4C[C@@H](OC)C4)c3c2C)ccn1` [Compound 162, N-((1s,3s)-3-Methoxycyclobutyl)-6-(2-methoxypyridin-4-yl)-5-methyl-2-(1-methyl-1H-imidazol-2-yl)pyrrolo[2,1-f][1,2,4]triazin-4-amine], in the assay with IL6, the inhibition was in the range of 25 to 49%. The inhibition at 10 µM with TNF-alpha is 25 to 49%. Also, the IC50 in assay [1] was greater than 1000 nM. The “% inh of Akt phosphorylation in Panc-1” value in the assay on Akt phosphorylation is on record as “B (26-49% inhibition)”.

As to `COc1cc(Nc2nc(-c3nccn3C)nn3cc(-c4cccnc4)c(-c4ccccn4)c23)ncn1` [Compound 167, N-(6-Methoxypyrimidin-4-yl)-2-(1-methyl-1H-imidazol-2-yl)-5-(pyridin-2-yl)-6-(pyridin-3-yl)pyrrolo[2,1-f][1,2,4]triazin-4-amine], the inhibition with IL6 came out at 0%. The inhibition at 10 µM in the assay with TNF-alpha came out at 0%. For the same compound, the IC50 in assay [1] was greater than 1000 nM. In addition, in the assay on Akt phosphorylation, the “% inh of Akt phosphorylation in Panc-1” value is “B* (26-49% activation)”.

Take `COc1cc(Nc2nc(-c3nccn3C)nn3cc(-c4ccccn4)c(C)c23)ncn1` [Compound 94, N-(6-Methoxypyrimidin-4-yl)-5-methyl-2-(1-methyl-1H-imidazol-2-yl)-6-(pyridin-2-yl)pyrrolo[2,1-f][1,2,4]triazin-4-amine]: the inhibition in the assay with IL6 was 50 to 74%. The inhibition at 10 µM with TNF-alpha was in the range of 25 to 49%. Besides, the IC50 in assay [1] was less than 150 nM. Also, the “% inh of Akt phosphorylation in Panc-1” value with Akt phosphorylation is on record as “D* (85-100% activation)”.

On to `COc1cc(-c2cn3nc(-c4nccn4C)nc(N[C@@H]4CC[C@H](OC)C4)c3c2C)ccn1` (racemic) [Compound 164, rac N-((1R,3S)-3-Methoxycyclopentyl)-6-(2-methoxypyridin-4-yl)-5-methyl-2-(1-methyl-1H-imidazol-2-yl)pyrrolo[2,1-f][1,2,4]triazin-4-amine], for which the inhibition in the assay with IL6 is 75 to 100%. For the same compound, the inhibition at 10 µM in the assay with TNF-alpha lay in the range of 1 to 24%. Besides, the IC50 in assay [1] was greater than 1000 nM. Besides, the “% inh of Akt phosphorylation in Panc-1” value in the assay on Akt phosphorylation was “A* (1-25% activation)”.
